What all share (assay type): cell-based
Assay [1] concerns the target SSTR2 (Rattus norvegicus, UniProt P30680). In words: Cyclic AMP accumulation, forskalin stimulated, intact cells. As to conditions: read-out: SSTR^2 % IA (% intrinsic activity). The source says:
Cyclic AMP accumulation assays are used to determine the functional coupling of somatostatin receptors to effectors. All five cloned somatostatin receptors inhibit cyclic AMP accumulation and adenylyl cyclone activity.^1,2,3,4,5 This evaluation measures cyclic AMP accumulation from intact cells using the adrenal binding protein method. Signal transduction by somatostatin is mediated by lowering intracellular c-AMP levels. This functional assay measures the ability of the test compound to inhibit the effect of somatostatin on forskalin stimulated c-AMP levels.
Bovine adrenal gland extracts are prepared according to the method of Brown et al^6 with minor modifications. […]
Somatostatin-mediated inhibition of cyclic AMP accumulation is measured in intact cells co-incubated with the diterpene forskalin (5 μM) which activates adenylyl cyclase directly and stimulates cyclic AMP accumulation in cells. […] The cells are counted and the concentration of cells is adjusted to 50,000/70 μl and incubated 15 minutes at room temperature before starting the assay. […]

Assay [2] deals with T1, rat somatostatin receptor subtype 2 (SSTR2) (Rattus norvegicus, UniProt P30680).
T1 construct: expressed in transfected cells; host or cells: Saccharomyces cerevisiae LY364 bearing pJH2 (SSTR2) and pLP82 (G protein)
T1 sequence (P30680 whole entry): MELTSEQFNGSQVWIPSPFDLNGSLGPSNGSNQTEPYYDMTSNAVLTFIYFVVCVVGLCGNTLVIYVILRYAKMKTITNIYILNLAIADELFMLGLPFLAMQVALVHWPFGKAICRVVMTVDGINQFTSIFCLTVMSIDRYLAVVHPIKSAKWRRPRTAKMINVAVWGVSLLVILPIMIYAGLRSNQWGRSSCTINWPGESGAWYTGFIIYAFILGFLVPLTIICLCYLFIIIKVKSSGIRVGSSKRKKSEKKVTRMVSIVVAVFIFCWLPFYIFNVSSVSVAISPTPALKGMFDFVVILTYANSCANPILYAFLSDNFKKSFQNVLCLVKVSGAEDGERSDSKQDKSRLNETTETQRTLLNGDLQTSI
The experiment in a line: Yeast assay, somatostatin antagonist activity (zone of no growth in presence of S-14). Set-up: key: 1 is minimum antagonist activity; 5 is maximum antagonist activity; --: When no activity is observed, the result is indicated by a dash. The settings on record: rating on a scale of 1-5 from zone of no growth; 5 μL of 1 mg/mL S-14 added to each plate. How it is done: (§1) In this evaluation, yeast cells which have been specifically modified to functionally express rat somatostatin receptor subtype 2 (SSTR2) on their cell surfaces are used. S. Cerevisiae LY364 cells are plated in a standard synthetic agar medium which lacks histidine. In the absence of a somatostatin receptor agonist, the auxotrophic (his3) cells are unable to grow. In the presence of somatostatin, or a somatostatin agonist, the expression of an enzyme (His3p: imidazole-glycerol phosphate dehydratase) which is essential for histidine biosynthesis is induced. The cells become competent to produce histidine, resulting in a zone of growing cells around the applied test compound. The zone is measured and the test compound is given an agonist rating on a scale of 1-5 wherein 1 is minimum agonist activity and 5 is maximum agonist activity.
To evaluate the somatostatin antagonist activity of a test compound, the above procedure is followed except on day 3, 5 μL of 1 mg/mL of somatostatin, S-14, is added to each plate, before applying the test compound. If the test compound is an antagonist of somatostatin, then a zone of no growth will appear within the cell growth zone. This zone of no growth is measured and the test compound is given an antagonist rating on a scale of 1-5 wherein 1 is minimum antagonist activity and 5 is maximum antagonist activity.
The results are shown in Table I. When no activity is observed, the result is indicated by a dash.
On day 3, add 5 μL 1 mg/mL S-14 to each plate.
(§2) Day 7. Growth in response to somatostatin should be readily observable. Rate extent of growth or inhibition of growth according to rating scale described hereinabove.

For assay [3], the target named is T1, rat somatostatin receptor subtype 2 (SSTR2). In words: Yeast assay, somatostatin agonist activity (zone of growth of modified yeast cells). The settings on record: rating on a scale of 1-5 from zone of growth; S. cerevisiae LY364 expressing rat SSTR2. Set-up: key: 1 is minimum agonist activity; 5 is maximum agonist activity; --: When no activity is observed, the result is indicated by a dash. On the procedure: as §1
1) Inoculate 2 mL SCD-ura-trp liquid medium in Falcon 2051 tube with a single colony taken from a plate containing LY364 (MATa ura3-52 leu2 his3 trp1 lys2 ade2 far1:: LYS2 fus1:: FUS1-HIS3 gpa1::hisG sst2::.ADE2 bearing the SSTR2 expression plasmid, pJH2, and the G protein expression plasmid, pLP82) cells.
3) Add 1 mL of LY364 culture to 1 liter of agar medium.
8) Incubate plates at 30° C.
Day 5. Begin checking plates for growth around applied compounds.
as §2

Each structure is given as a SMILES string. Positions of bridges follow the written chain, without caps; N, C: chain ends. Non-standard residues stand in square brackets, D forms with d. Residues, ends and D or L forms follow the SMILES beside them. Phe(4-NO2) = N[C@@H](Cc1ccc([N+](=O)[O-])cc1)C(=O)O; 2Nal = N[C@@H](Cc1ccc2ccccc2c1)C(=O)O

Chain of SSTR2 (P30680 whole entry): as above

`NCCCC[C@@H]1NC(=O)[C@@H](Cc2c[nH]c3ccccc23)NC(=O)[C@H](Cc2ccc(O)cc2)NC(=O)[C@H](NC(=O)[C@@H](N)Cc2ccc([N+](=O)[O-])cc2)CSSC[C@@H](C(=O)N[C@@H](Cc2ccc3ccccc3c2)C(N)=O)NC(=O)[C@H](CO)NC1=O` [4-NO2 Phe Tyr Lys Ser Nal(2)] (H-[Phe(4-NO2)][dC]Y[dW]KSC[2Nal]-NH2; disulfide 2-7 (inferred); N-terminus and C-terminus assumed): the Emax in assay [1] came out at 7%. Further, the “Yeast Assay Antagonist” value in assay [2] is reported as 3. Moreover, the “Yeast Assay Agonist” value in assay [3] was “--”.

In the case of `C[C@@H](O)[C@@H]1NC(=O)[C@H](CCCCN)NC(=O)[C@@H](Cc2c[nH]c3ccccc23)NC(=O)[C@H](Cc2ccc(O)cc2)NC(=O)[C@H](NC(=O)[C@@H](N)Cc2ccc(I)cc2)CSSC[C@@H](C(=O)N[C@@H](Cc2ccc(O)cc2)C(N)=O)NC1=O` [4-IPhe Tyr Lys Thr Tyr], the Emax in assay [1] was -12%. The “Yeast Assay Antagonist” value in assay [2] stood at 5. Besides, in assay [3], the “Yeast Assay Agonist” value was “--”.

Source of the values: US5846934A, “Pure somatostatin antagonist and methods of use thereof” (American Cyanamid Company, priority 1997, dated 1998).
